Patent publication US10183938B2, “Geminal substituted quinuclidine amide compounds as agonists of α-7 nicotonic acetylcholine receptors” (AXOVANT SCIENCES GMBH, priority 2014, dated 2019)
Counter-ions that a name gives are not always drawn.

biological target: human α7 nAChRs transiently expressed in Xenopus laevis oocytes (Homo sapiens (Human), UniProt P36544); assay: Oocyte electrophysiology screen (TEVC); type: cell-based; conditions: 0.01 mM test compound, peak current relative to 0.2 mM ACh
Sequence (P36544 23-502 limits assumed): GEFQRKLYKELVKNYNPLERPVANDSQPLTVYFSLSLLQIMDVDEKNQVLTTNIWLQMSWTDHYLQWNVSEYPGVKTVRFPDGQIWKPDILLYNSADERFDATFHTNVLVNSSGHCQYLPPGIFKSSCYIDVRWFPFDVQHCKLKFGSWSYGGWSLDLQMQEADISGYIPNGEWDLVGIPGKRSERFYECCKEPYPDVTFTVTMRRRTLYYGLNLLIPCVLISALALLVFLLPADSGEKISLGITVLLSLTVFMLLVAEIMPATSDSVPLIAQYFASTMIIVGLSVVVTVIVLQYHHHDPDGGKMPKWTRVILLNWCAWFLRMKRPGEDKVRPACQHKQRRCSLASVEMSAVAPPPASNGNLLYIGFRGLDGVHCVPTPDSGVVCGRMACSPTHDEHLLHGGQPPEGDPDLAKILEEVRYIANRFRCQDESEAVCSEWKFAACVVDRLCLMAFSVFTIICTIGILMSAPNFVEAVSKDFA
Description: Oocyte Electrophysiology Screen (% ACh @ 10 μM Oocyte)
The Oocyte Electrophysiology Screen studies were performed under contract by HiQScreen Geneva, Switzerland. All experiments were carried out at human α7 nAChRs transiently expressed in Xenopus laevis oocytes using the method of cDNA expression. Currents evoked by acetylcholine or other agonist ligands were recorded using the standard two-electrode voltage-clamp configuration (TEVC). X. laevis oocytes were prepared and injected using standard procedures. Briefly, ovaries were harvested from X. laevis females that were deeply anesthetized and pithed following the animal rights rule from the Geneva canton. A small piece of ovary was isolated for immediate preparation while the remaining part was placed at 4° C. in a sterile Barth solution containing in mM: NaCl 88, KCl 1, NaHCO3 2.4, HEPES 10, MgSO4.7H2O 0.82, Ca(NO3)2.4H2O 0.33, CaCl2.6H2O 0.41, at pH 7.4, and supplemented with 20 μg/mL of kanamycin, 100 unit/mL penicillin and 100 μg/mL streptomycin. […] Cells were held at −80 mV. Data were filtered at 10 Hz, captured at 100 Hz and analyzed using proprietary data acquisition and analysis software running under Matlab (Mathworks Inc.).
Experimental Protocol and Analysis
After establishing a baseline transmembrane current, acetylcholine (ACh) was applied for 5 seconds at a concentration of 0.2 mM to establish a control ACh-evoked current response. Following a wash period of 90 s in OR2 medium (free of ACh), cells were then exposed for 30 s to the test compound applied at 0.01 mM. The same reference ACh test pulse was immediately given at the end of the compound exposure and again after 90 s of recovery in OR2 Medium (free of ACh or test compound). All data were determined in triplicate. The response evoked by the test compound was expressed as a percentage of that evoked by ACh: Response (% ACh)=100×(Itest/IACh) where Itest is the peak inward current measured during exposure to 0.01 mM of test compound and IACh is the peak inward current measured in the presence of ACh.

Going from `CC1(C)[C@@H](NC(=O)c2cc3cc(C(F)(F)F)ccc3s2)C2CCN1CC2` [(S)-17, (S)—N-(2,2-dimethylquinuclidin-3-yl)-5-(trifluoromethyl)benzo[b]thiophene-2-carboxamide hydrochloride] to `CC1(C)[C@H](NC(=O)c2ccc3ccoc3c2)C2CCN1CC2` [(R)-31, (R)—N-(2,2-dimethylquinuclidin-3-yl)benzofuran-6-carboxamide hydrochloride], the “% ACh @ 10 μM Oocyte” value rises from 1 % ACh to 294 % ACh.

Compared with `Cl.O=C(N[C@@H]1C2CCN(CC2)C12CC2)c1cc2ccc(OC(F)(F)F)cc2s1` [(R)-248, (R)-N-(1′-azaspiro[cyclopropane-1,2′-bicyclo[2.2.2]octan]-3′-yl)-6-(trifluoromethoxy)benzo[b]thiophene-2-carboxamide hydrochloride], `O=C(N[C@@H]1C2CCN(CC2)C12CC2)c1cc2cccnc2s1` [(R)-81, (R)—N-(1′-azaspiro[cyclopropane-1,2′-bicyclo[2.2.2]octan]-3′-yl)thieno[2,3-b]pyridine-2-carboxamide hydrochloride] is higher in “% ACh @ 10 μM Oocyte” value: 1 % ACh for the first, 449 % ACh for the second.

First: Cc1cc2cc(C(=O)N[C@@H]3C4CCN(CC4)C3(C)C)ccc2o1 [(R)-38, (R)—N-(2,2-dimethylquinuclidin-3-yl)-2-methylbenzofuran-5-carboxamide hydrochloride]
Second: Cl.Cn1c(C(=O)N[C@@H]2C3CCN(CC3)C2(C)C)cc2ccccc21 [(R)-221, (R)-N-(2,2-dimethylquinuclidin-3-yl)-1-methyl-1H-indole-2-carboxamide hydrochloride]
The “% ACh @ 10 μM Oocyte” value of the first is higher: 339 % ACh for the first, 188 % ACh for the second.

Compared with `CC1(C)[C@@H](NC(=O)c2cc3ccc(C(F)(F)F)cc3s2)C2CCN1CC2` [(S)-10, (S)—N-(2,2-dimethylquinuclidin-3-yl)-6-(trifluoromethyl)benzo[b]thiophene-2-carboxamide hydrochloride], `Cc1ccc2cc(C(=O)N[C@H]3C4CCN(CC4)C3(C)C)sc2c1` [(S)-15, (S)—N-(2,2-dimethylquinuclidin-3-yl)-6-methylbenzo[b]thiophene-2-carboxamide hydrochloride] is higher in “% ACh @ 10 μM Oocyte” value: 1 % ACh for the first, 3 % ACh for the second.

`CC(C)Oc1ccc2cc(C(=O)N[C@@H]3C4CCN(CC4)C3(C)C)sc2c1` [(R)-47, (R)—N-(2,2-dimethylquinuclidin-3-yl)-6-isopropoxybenzo[b]thiophene-2-carboxamide hydrochloride] and “(R)-N-(2,2-dimethylquinuclidin-3-yl)-6-(trifluoromethoxy)benzo[b]thiophene-2-carboxamide hydrochloride [(R)-209]” are the same in “% ACh @ 10 μM Oocyte” value: 1 % ACh for the first, 1 % ACh for the second.

First: Cc1coc2ccc(C(=O)N[C@@H]3C4CCN(CC4)C34CC4)cc12 [(R)-93, (R)-3-methyl-N-(1′-azaspiro[cyclopropane-1,2′-bicyclo[2.2.2]octan]-3′-yl)benzofuran-5-carboxamide hydrochloride]
Second: Cc1nc2cc(C(=O)N[C@@H]3C4CCN(CC4)C34CC4)ccc2s1 [(R)-87, (R)-2-methyl-N-(1′-azaspiro[cyclopropane-1,2′-bicyclo[2.2.2]octan]-3′-yl)benzo[d]thiazole-5-carboxamide hydrochloride]
The “% ACh @ 10 μM Oocyte” value of the first is higher: 516 % ACh for the first, 341 % ACh for the second.

`CC1(C)[C@@H](NC(=O)c2cc3ccc(C4CC4)cc3s2)C2CCN1CC2` [(S)-18, (S)-6-cyclopropyl-N-(2,2-dimethylquinuclidin-3-yl)benzo[b]thiophene-2-carboxamide hydrochloride] and `O=C(NC1C2CCN(CC2)C12CC2)c1cc2cc(Cl)c(Cl)cc2s1` (single isomer, unassigned; enantiomer1) [67a, 5,6-dichloro-N-(1′-azaspiro[cyclopropane-1,2′-bicyclo[2.2.2]octan]-3′-yl)benzo[b]thiophene-2-carboxamide-enantiomer1 hydrochloride] are the same in “% ACh @ 10 μM Oocyte” value: 1 % ACh for the first, 1 % ACh for the second.

Compared with `CC1(C)[C@H](NC(=O)c2cc3ccc(Cl)cc3o2)C2CCN1CC2.Cl` [(R)-216, (R)-6-chloro-N-(2,2-dimethylquinuclidin-3-yl)benzofuran-2-carboxamide hydrochloride], `CC(C)Oc1ccc2cc(C(=O)N[C@@H]3C4CCN(CC4)C34CC4)sc2c1` [(R)-102, (R)-6-isopropoxy-N-(1′-azaspiro[cyclopropane-1,2′-bicyclo[2.2.2]octan]-3′-yl)benzo[b]thiophene-2-carboxamide hydrochloride] is lower in “% ACh @ 10 μM Oocyte” value: 184 % ACh for the first, 1 % ACh for the second.

Going from `CC1(C)[C@H](NC(=O)c2cnn3ncccc23)C2CCN1CC2` [(R)-27, (R)—N-(2,2-dimethylquinuclidin-3-yl)pyrazolo[1,5-b]pyridazine-3-carboxamide hydrochloride] to `CC1(C)[C@@H](NC(=O)c2ccc3ccsc3c2)C2CCN1CC2` [(S)-5, (S)—N-(2,2-dimethylquinuclidin-3-yl)benzo[b]thiophene-6-carboxamide hydrochloride], the “% ACh @ 10 μM Oocyte” value rises from 0 % ACh to 9 % ACh.

First: CC1(C)[C@@H](NC(=O)c2nc3ccccc3s2)C2CCN1CC2 [(S)-29, (S)—N-(2,2-dimethylquinuclidin-3-yl)benzo[d]thiazole-2-carboxamide hydrochloride]
Second: O=C(NC1C2CCN(CC2)C12CC2)c1cc2cc(Cl)c(Cl)cc2s1 (single isomer, unassigned; enantiomer2) [67b, 5,6-dichloro-N-(1′-azaspiro[cyclopropane-1,2′-bicyclo[2.2.2]octan]-3′-yl)benzo[b]thiophene-2-carboxamide-enantiomer2 hydrochloride]
The “% ACh @ 10 μM Oocyte” value of the first is higher: 2 % ACh for the first, 1 % ACh for the second.

Compared with `O=C(N[C@@H]1C2CCN(CC2)C12CC2)c1cc2ccc(F)c(C(F)(F)F)c2s1` [(R)-153, (R)-6-fluoro-N-(1′-azaspiro[cyclopropane-1,2′-bicyclo[2.2.2]octan]-3′-yl)-7-(trifluoromethyl)benzo[b]thiophene-2-carboxamide hydrochloride], `Cc1nc2cc(C(=O)N[C@@H]3C4CCN(CC4)C3(C)C)ccc2s1` [(R)-34, (R)—N-(2,2-dimethylquinuclidin-3-yl)-2-methylbenzo[d]thiazole-5-carboxamide hydrochloride] is higher in “% ACh @ 10 μM Oocyte” value: 114 % ACh for the first, 159 % ACh for the second.

same assay, conditions: 0.01 mM test compound, peak current relative to 0.2 mM ACh; hydrochloride

Compared with `COc1ccc2sc(C(=O)NC3C4CCN(CC4)C34CC4)cc2c1` (single isomer, unassigned; enantiomer2) [74b, 5-methoxy-N-(1′-azaspiro[cyclopropane-1,2′-bicyclo[2.2.2]octan]-3′-yl)benzo[b]thiophene-2-carboxamide-enantiomer2 hydrochloride], `Cc1ccc2sc(C(=O)NC3C4CCN(CC4)C34CC4)cc2c1` (single isomer, unassigned; enantiomer2) [69b, 5-methyl-N-(1′-azaspiro[cyclopropane-1,2′-bicyclo[2.2.2]octan]-3′-yl)benzo[b]thiophene-2-carboxamide-enantiomer2 hydrochloride] is lower in “% ACh @ 10 μM Oocyte” value: 4 % ACh for the first, 1 % ACh for the second.

First: O=C(NC1C2CCN(CC2)C12CC2)c1cc2cc(C(F)(F)F)ccc2s1 (single isomer, unassigned; enantiomer2) [70b, N-(1′-azaspiro[cyclopropane-1,2′-bicyclo[2.2.2]octan]-3′-yl)-5-(trifluoromethyl)benzo[b]thiophene-2-carboxamide-enantiomer2 hydrochloride]
Second: O=C(NC1C2CCN(CC2)C12CC2)c1cc2cc(Cl)ccc2s1 (single isomer, unassigned; enantiomer1) [66a, 5-chloro-N-(1′-azaspiro[cyclopropane-1,2′-bicyclo[2.2.2]octan]-3′-yl)benzo[b]thiophene-2-carboxamide-enantiomer1 hydrochloride]
The “% ACh @ 10 μM Oocyte” value of the first is lower: 1 % ACh for the first, 2 % ACh for the second.

First: O=C(NC1C2CCN(CC2)C12CC2)c1cc2ccc(C3CC3)cc2s1 (single isomer, unassigned; enantiomer2) [71b, 6-cyclopropyl-N-(1′-azaspiro[cyclopropane-1,2′-bicyclo[2.2.2]octan]-3′-yl)benzo[b]thiophene-2-carboxamide-enantiomer2 hydrochloride]
Second: O=C(NC1C2CCN(CC2)C12CC2)c1cc2ccccc2s1 (single isomer, unassigned; enantiomer2) [54b, N-(1′-azaspiro[cyclopropane-1,2′-bicyclo[2.2.2]octan]-3′-yl)benzo[b]thiophene-2-carboxamide-enantiomer2 hydrochloride]
The “% ACh @ 10 μM Oocyte” value of the first is lower: 2 % ACh for the first, 1319 % ACh for the second.

In the case of `O=C(NC1C2CCN(CC2)C12CC2)c1cc2cccc(F)c2s1` (single isomer, unassigned; enantiomer1) [57a, 7-fluoro-N-(1′-azaspiro[cyclopropane-1,2′-bicyclo[2.2.2]octan]-3′-yl)benzo[b]thiophene-2-carboxamide-enantiomer1 hydrochloride], the “% ACh @ 10 μM Oocyte” value was 386 % ACh.
